Laboratory results taken from ChEMBL document CHEMBL5058641, “Data for DCP probe TP-050” (2022).

Experiments:
[1] = biological target: 5-hydroxytryptamine receptor 1D (Homo sapiens, UniProt P28221); assay: GPCRScan assay: inhibition of 5-HT1D; design: radioligand conc. used [nm] 1.0 – 2.0, parental cells HEKT
[2] = biological target: T1, Sodium-dependent dopamine transporter (Homo sapiens, UniProt Q01959); assay: GPCRScan assay: inhibition of DAT; design: radioligand conc. used [nm] 3.6 – 16.0, parental cells stable HEK
[3] = GPCRScan assay: inhibition of GABA/PBR; design: species or system Rattus norvegicus; radioligand conc. used [nm] 0.3 – 2.0, parental cells brain tissue
[4] = AMPA receptor scintillation proximity binding assay; design: species or system Homo sapiens
[5] = biological target: Glutamate receptor ionotropic, NMDA 2C (Homo sapiens, UniProt Q05586+Q14957); assay: GluN2C-containing NMDA receptor (Ca2+ influx) assay (EC50)
[6] = biological target: Tyrosine-protein kinase Lck (Homo sapiens, UniProt P06239); assay: LCK Eurofins SafetyScreen (Other); design: species or system Inhibitor
[7] = biological target: Sodium channel protein type 5 subunit alpha (Homo sapiens, UniProt Q14524); assay: NAV1.5 Eurofins SafetyScreen (Other); design: species or system Blocker
[8] = biological target: Glutamate receptor ionotropic, NMDA 1 (Homo sapiens, UniProt Q05586+Q13224); assay: NMDAR (1A/2B) Eurofins SafetyScreen (Other); design: species or system Blocker
Insulin receptor = Insulin receptor (Homo sapiens, UniProt P06213); assay: INSR Eurofins SafetyScreen (Other); design: species or system Inhibitor
[9] = biological target: 5-hydroxytryptamine receptor 3A (Homo sapiens, UniProt P46098); assay: HTR3A Eurofins SafetyScreen (Other); design: species or system Blocker
[10] = biological target: Rho-associated protein kinase 1 (Homo sapiens, UniProt Q13464); assay: ROCK1 Eurofins SafetyScreen (Other); design: species or system Inhibitor
[11] = biological target: Vascular endothelial growth factor receptor 2 (Homo sapiens, UniProt P35968); assay: VEGFR2 Eurofins SafetyScreen (Other); design: species or system Inhibitor
[12] = biological target: Prostaglandin G/H synthase 2 (Homo sapiens, UniProt P35354); assay: COX2 Eurofins SafetyScreen (Other); design: species or system Inhibitor
[13] = biological target: cGMP-inhibited 3',5'-cyclic phosphodiesterase 3A (Homo sapiens, UniProt Q14432); assay: PDE3A Eurofins SafetyScreen (Other); design: species or system Inhibitor
Vasopressin V1a receptor = Vasopressin V1a receptor (Homo sapiens, UniProt P37288); assay: AVPR1A Eurofins SafetyScan (Receptor)
[14] = biological target: Alpha-1A adrenergic receptor (Homo sapiens, UniProt P35348); assay: ADRA1A Eurofins SafetyScan (Receptor)
[15] = biological target: T2, Beta-1 adrenergic receptor (Homo sapiens, UniProt P08588); assay: ADRB1 Eurofins SafetyScan (Receptor)
[16] = biological target: Muscarinic acetylcholine receptor M2 (Homo sapiens, UniProt P08172); assay: CHRM2 Eurofins SafetyScan (Receptor)
Cannabinoid receptor 2 = Cannabinoid receptor 2 (Homo sapiens, UniProt P34972); assay: CNR2 Eurofins SafetyScan (Receptor)
D(2) dopamine receptor = D(2) dopamine receptor (Homo sapiens, UniProt P14416); assay: DRD2S Eurofins SafetyScan (Receptor)
[17] = biological target: 5-hydroxytryptamine receptor 1A (Homo sapiens, UniProt P08908); assay: HTR1A Eurofins SafetyScan (Receptor)
[18] = biological target: T3, 5-hydroxytryptamine receptor 1B (Homo sapiens, UniProt P28222); assay: HTR1B Eurofins SafetyScan (Receptor)
[19] = biological target: 5-hydroxytryptamine receptor 2A (Homo sapiens, UniProt P28223); assay: HTR2A Eurofins SafetyScan (Receptor)
[20] = biological target: 5-hydroxytryptamine receptor 2B (Homo sapiens, UniProt P41595); assay: HTR2B Eurofins SafetyScan (Receptor)
[21] = biological target: T4, Kappa-type opioid receptor (Homo sapiens, UniProt P41145); assay: OPRK1 Eurofins SafetyScan (Receptor)
Androgen receptor = Androgen receptor (Homo sapiens, UniProt P10275); assay: AR Eurofins SafetyScan (Receptor)
Glucocorticoid receptor = Glucocorticoid receptor (Homo sapiens, UniProt P04150); assay: GR Eurofins SafetyScan (Receptor)
[22] = biological target: 5-hydroxytryptamine receptor 1A (Homo sapiens) (UniProt P08908); conditions: Compound concentration 10.0 uM
[23] = biological target: T3, 5-hydroxytryptamine receptor 1B; conditions: Compound concentration 10.0 uM
[24] = biological target: 5-hydroxytryptamine receptor 2C (Homo sapiens) (UniProt P28335); conditions: Compound concentration 10.0 uM
[25] = biological target: 5-hydroxytryptamine receptor 3A (Homo sapiens) (UniProt P46098); conditions: Compound concentration 10.0 uM
[26] = biological target: 5-hydroxytryptamine receptor 5A (Homo sapiens) (UniProt P47898); conditions: Compound concentration 10.0 uM
[27] = biological target: 5-hydroxytryptamine receptor 6 (Homo sapiens) (UniProt P50406); conditions: Compound concentration 10.0 uM
D(1A) dopamine receptor = D(1A) dopamine receptor (Homo sapiens, UniProt P21728); conditions: Compound concentration 10.0 uM
[28] = biological target: D(3) dopamine receptor (Homo sapiens) (UniProt P35462); conditions: Compound concentration 10.0 uM
[29] = biological target: D(1B) dopamine receptor (Homo sapiens) (UniProt P21918); conditions: Compound concentration 10.0 uM
[30] = biological target: T1, Sodium-dependent dopamine transporter; conditions: Compound concentration 10.0 uM
[31] = biological target: Delta-type opioid receptor (Homo sapiens, UniProt P41143); conditions: Compound concentration 10.0 uM
[32] = biological target: T4, Kappa-type opioid receptor; conditions: Compound concentration 10.0 uM
[33] = biological target: Histamine H3 receptor (Homo sapiens) (UniProt Q9Y5N1); conditions: Compound concentration 10.0 uM
[34] = biological target: Alpha-2A adrenergic receptor (Homo sapiens) (UniProt P08913); conditions: Compound concentration 10.0 uM
[35] = biological target: T2, Beta-1 adrenergic receptor; conditions: Compound concentration 10.0 uM
[36] = biological target: Muscarinic acetylcholine receptor M3 (Homo sapiens, UniProt P20309); conditions: Compound concentration 10.0 uM
[37] = biological target: Alpha-1D adrenergic receptor (Homo sapiens) (UniProt P25100); conditions: Compound concentration 10.0 uM
[38] = biological target: Sigma intracellular receptor 2 (Homo sapiens) (UniProt Q5BJF2); conditions: Compound concentration 10.0 uM
[39] = biological target: Sigma non-opioid intracellular receptor 1 (Homo sapiens) (UniProt Q99720); conditions: Compound concentration 10.0 uM

T4 sequence (P41145 whole entry): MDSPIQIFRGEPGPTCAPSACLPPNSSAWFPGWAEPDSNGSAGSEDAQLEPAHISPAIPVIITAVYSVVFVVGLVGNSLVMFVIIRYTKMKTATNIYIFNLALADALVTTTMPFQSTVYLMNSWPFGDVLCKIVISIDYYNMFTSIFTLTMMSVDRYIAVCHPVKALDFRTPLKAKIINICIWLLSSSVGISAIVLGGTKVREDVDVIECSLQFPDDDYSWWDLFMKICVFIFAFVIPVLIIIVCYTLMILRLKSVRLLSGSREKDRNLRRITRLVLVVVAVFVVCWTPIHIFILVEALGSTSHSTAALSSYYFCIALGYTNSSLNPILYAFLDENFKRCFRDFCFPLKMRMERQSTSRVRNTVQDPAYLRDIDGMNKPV
T1 sequence (Q01959 whole entry): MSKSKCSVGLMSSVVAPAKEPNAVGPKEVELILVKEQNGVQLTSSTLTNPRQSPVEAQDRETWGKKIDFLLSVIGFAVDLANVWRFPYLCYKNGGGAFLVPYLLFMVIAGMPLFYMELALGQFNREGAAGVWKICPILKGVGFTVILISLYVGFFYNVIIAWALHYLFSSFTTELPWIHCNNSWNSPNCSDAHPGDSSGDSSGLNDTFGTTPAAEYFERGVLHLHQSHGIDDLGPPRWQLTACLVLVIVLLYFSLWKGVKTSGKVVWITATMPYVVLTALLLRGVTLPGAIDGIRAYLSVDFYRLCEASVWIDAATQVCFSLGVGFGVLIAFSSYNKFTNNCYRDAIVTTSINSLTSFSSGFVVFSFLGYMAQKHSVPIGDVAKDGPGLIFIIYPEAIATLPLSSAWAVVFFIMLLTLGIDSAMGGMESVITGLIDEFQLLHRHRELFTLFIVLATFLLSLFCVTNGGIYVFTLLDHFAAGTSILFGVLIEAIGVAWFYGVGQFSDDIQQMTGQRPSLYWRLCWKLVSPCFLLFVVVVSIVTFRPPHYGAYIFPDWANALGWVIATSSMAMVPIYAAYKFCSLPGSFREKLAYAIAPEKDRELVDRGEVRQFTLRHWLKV
T3 sequence (P28222 whole entry): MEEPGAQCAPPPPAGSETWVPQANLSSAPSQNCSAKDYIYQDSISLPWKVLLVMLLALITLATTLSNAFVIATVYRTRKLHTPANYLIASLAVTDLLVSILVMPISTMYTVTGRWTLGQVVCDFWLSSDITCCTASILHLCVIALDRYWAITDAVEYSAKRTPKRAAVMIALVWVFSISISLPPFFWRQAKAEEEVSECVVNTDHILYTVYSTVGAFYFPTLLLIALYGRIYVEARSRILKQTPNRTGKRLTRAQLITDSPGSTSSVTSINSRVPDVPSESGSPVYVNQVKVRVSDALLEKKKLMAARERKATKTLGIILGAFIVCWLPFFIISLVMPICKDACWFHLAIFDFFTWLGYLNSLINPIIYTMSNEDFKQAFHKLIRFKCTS
Androgen receptor, sequence (P10275 whole entry): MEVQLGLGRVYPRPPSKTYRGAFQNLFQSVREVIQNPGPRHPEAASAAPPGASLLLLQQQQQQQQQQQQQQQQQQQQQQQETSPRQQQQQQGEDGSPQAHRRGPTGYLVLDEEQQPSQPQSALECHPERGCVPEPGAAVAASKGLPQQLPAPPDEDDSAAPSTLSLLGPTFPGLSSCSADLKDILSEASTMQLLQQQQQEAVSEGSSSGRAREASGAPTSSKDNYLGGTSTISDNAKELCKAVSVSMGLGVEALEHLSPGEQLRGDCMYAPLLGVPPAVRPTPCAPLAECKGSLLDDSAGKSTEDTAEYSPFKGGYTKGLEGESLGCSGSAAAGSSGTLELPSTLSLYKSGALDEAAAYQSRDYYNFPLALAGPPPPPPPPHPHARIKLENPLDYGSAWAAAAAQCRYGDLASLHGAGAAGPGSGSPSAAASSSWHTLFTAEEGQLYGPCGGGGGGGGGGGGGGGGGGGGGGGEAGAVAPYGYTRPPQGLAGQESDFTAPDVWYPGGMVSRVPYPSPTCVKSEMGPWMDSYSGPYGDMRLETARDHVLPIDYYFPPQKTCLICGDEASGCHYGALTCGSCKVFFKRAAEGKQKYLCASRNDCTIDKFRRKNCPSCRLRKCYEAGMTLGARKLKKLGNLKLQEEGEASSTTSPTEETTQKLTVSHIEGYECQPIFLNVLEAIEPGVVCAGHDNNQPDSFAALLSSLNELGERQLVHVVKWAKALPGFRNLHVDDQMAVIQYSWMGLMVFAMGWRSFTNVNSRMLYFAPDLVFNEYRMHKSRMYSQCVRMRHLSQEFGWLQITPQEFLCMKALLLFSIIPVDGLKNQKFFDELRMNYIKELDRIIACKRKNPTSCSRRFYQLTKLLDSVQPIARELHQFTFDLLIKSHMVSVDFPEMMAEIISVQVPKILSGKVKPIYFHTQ
5-hydroxytryptamine receptor 2B, sequence (P41595 whole entry): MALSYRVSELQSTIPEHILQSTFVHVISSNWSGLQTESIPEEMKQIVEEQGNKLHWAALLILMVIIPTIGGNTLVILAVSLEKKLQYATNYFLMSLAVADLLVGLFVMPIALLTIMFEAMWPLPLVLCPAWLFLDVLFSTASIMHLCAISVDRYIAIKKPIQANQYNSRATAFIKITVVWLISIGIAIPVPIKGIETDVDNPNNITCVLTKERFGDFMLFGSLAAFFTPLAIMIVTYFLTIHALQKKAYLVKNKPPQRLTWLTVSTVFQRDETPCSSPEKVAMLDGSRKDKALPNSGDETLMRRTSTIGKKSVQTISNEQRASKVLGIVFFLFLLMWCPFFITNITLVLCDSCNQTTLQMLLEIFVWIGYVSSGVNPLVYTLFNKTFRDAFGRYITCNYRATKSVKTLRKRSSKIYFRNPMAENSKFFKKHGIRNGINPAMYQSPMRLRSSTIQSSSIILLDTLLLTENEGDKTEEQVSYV
5-hydroxytryptamine receptor 1A, sequence (P08908 whole entry): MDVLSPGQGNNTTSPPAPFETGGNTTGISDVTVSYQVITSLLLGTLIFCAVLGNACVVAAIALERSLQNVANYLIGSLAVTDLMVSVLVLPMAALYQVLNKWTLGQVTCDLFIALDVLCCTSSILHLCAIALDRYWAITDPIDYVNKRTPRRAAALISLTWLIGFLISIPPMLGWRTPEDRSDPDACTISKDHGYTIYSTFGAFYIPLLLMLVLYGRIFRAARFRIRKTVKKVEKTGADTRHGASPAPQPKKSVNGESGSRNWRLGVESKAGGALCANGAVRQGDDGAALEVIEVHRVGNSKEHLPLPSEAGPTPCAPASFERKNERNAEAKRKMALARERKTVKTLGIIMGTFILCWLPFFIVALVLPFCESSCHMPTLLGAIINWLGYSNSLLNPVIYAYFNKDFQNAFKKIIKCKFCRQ
Glucocorticoid receptor, sequence (P04150 whole entry): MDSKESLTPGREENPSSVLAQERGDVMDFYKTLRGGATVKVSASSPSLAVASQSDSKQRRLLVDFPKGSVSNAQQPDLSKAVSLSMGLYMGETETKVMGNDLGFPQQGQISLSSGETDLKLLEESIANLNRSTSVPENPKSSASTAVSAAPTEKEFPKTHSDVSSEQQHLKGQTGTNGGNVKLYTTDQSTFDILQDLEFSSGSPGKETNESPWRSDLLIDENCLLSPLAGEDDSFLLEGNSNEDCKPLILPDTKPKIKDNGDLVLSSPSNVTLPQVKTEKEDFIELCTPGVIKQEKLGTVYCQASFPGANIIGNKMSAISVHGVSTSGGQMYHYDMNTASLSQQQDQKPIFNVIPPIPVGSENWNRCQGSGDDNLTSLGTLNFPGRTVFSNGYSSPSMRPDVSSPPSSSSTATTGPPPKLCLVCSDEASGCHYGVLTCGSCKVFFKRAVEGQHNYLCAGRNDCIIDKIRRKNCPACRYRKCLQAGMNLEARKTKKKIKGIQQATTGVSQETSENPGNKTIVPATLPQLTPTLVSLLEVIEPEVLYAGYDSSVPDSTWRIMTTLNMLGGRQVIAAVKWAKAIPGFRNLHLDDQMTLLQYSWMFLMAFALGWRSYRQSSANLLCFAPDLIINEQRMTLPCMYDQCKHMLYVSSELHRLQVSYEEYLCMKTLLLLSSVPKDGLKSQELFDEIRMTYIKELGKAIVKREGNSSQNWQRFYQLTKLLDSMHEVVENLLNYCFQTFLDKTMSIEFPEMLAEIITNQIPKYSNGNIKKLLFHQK
Alpha-1A adrenergic receptor, sequence (P35348 whole entry): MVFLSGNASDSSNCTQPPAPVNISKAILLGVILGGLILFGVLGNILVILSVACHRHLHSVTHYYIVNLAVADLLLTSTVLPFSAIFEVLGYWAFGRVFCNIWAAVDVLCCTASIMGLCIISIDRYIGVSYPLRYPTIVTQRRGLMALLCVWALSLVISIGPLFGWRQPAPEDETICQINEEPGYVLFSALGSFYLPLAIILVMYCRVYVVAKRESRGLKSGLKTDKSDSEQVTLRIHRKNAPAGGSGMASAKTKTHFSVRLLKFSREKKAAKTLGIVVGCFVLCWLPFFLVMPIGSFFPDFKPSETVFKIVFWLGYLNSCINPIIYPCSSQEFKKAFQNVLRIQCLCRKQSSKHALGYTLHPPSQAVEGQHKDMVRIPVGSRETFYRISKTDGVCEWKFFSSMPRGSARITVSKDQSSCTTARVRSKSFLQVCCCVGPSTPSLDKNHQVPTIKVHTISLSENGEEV
5-hydroxytryptamine receptor 2A, sequence (P28223 whole entry): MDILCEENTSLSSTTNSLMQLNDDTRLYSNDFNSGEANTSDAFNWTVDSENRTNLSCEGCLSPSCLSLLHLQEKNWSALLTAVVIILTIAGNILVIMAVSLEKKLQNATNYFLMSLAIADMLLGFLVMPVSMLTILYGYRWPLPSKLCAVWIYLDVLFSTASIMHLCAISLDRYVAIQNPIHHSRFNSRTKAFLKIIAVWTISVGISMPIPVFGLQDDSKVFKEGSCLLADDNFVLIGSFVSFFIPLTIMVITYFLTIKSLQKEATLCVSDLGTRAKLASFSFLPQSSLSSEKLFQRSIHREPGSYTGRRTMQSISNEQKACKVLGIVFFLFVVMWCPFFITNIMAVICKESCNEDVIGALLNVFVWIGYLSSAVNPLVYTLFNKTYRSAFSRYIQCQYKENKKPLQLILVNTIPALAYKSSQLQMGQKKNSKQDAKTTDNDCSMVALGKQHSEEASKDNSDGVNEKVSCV
5-hydroxytryptamine receptor 1A (Homo sapiens), sequence (P08908 whole entry): as the sequence (P08908 whole entry) above

Q: With `Cc1cn([C@H](C)CC#N)c(=O)c2cc(Cn3nc(C(F)F)cc3Cl)nn12` as the compound, how does the Ki [1] read?
A: > 10 µM

Q: And the pKi [1]?
A: < 5

Q: And the Ki ([2]; read-out: Ki)?
A: 9.53 µM

Q: What about the Ki ([2]; read-out: pKi (converted)) of the same compound?
A: 9.55 µM

Q: And the Ki [3]?
A: 0.336 µM

Q: And the pKi [3]?
A: 6.47

Q: And the IC50 [4]?
A: > 30 µM (not active)

Q: What about the EC50 [5] of the same compound?
A: > 30 µM (not active)

Q: And the IC50 [6]?
A: > 10 µM

Q: What about the IC50 [7] of the same compound?
A: > 10 µM

Q: What about the IC50 [8] of the same compound?
A: > 10 µM

Q: What about the IC50 (Insulin receptor) of the same compound?
A: > 10 µM

Q: And the IC50 [9]?
A: > 10 µM

Q: What about the IC50 [10] of the same compound?
A: > 10 µM

Q: What about the IC50 [11] of the same compound?
A: > 10 µM

Q: What about the IC50 [12] of the same compound?
A: > 10 µM

Q: And the IC50 [13]?
A: 7.9 µM

Q: What about the EC50 (Vasopressin V1a receptor) of the same compound?
A: > 10 µM

Q: And the IC50 (Vasopressin V1a receptor)?
A: > 10 µM

Q: What about the EC50 [14] of the same compound?
A: > 10 µM

Q: And the IC50 [14]?
A: > 10 µM

Q: And the EC50 [15]?
A: > 10 µM

Q: And the IC50 [15]?
A: > 10 µM

Q: What about the EC50 [16] of the same compound?
A: > 10 µM

Q: What about the IC50 [16] of the same compound?
A: > 10 µM

Q: And the EC50 (Cannabinoid receptor 2)?
A: > 10 µM

Q: What about the IC50 (Cannabinoid receptor 2) of the same compound?
A: > 10 µM

Q: What about the EC50 (D(2) dopamine receptor) of the same compound?
A: > 10 µM

Q: What about the IC50 (D(2) dopamine receptor) of the same compound?
A: > 10 µM

Q: What about the EC50 [17] of the same compound?
A: > 10 µM

Q: And the IC50 [17]?
A: > 10 µM

Q: And the EC50 [18]?
A: > 10 µM

Q: What about the IC50 [18] of the same compound?
A: > 10 µM

Q: What about the EC50 [19] of the same compound?
A: > 10 µM

Q: What about the IC50 [19] of the same compound?
A: > 10 µM

Q: What about the EC50 [20] of the same compound?
A: > 10 µM

Q: What about the IC50 [20] of the same compound?
A: > 10 µM

Q: And the EC50 [21]?
A: > 10 µM

Q: What about the IC50 [21] of the same compound?
A: > 10 µM

Q: What about the EC50 (Androgen receptor) of the same compound?
A: > 10 µM

Q: And the IC50 (Androgen receptor)?
A: > 10 µM

Q: And the EC50 (Glucocorticoid receptor)?
A: > 10 µM

Q: What about the IC50 (Glucocorticoid receptor) of the same compound?
A: > 10 µM

Q: What about the inhibition [22] of the same compound?
A: -5.4%

Q: And the inhibition [23]?
A: 21.7%

Q: What about the inhibition [24] of the same compound?
A: 13.1%

Q: What about the inhibition [25] of the same compound?
A: 0.11%

Q: And the inhibition [26]?
A: 7.54%

Q: What about the inhibition [27] of the same compound?
A: 8.34%

Q: What about the inhibition (D(1A) dopamine receptor) of the same compound?
A: 1.34%

Q: And the inhibition [28]?
A: 33%

Q: What about the inhibition [29] of the same compound?
A: 19.3%

Q: What about the inhibition [30] of the same compound?
A: 54.8%

Q: And the inhibition [31]?
A: -4.95%

Q: And the inhibition [32]?
A: 2.27%

Q: What about the inhibition [33] of the same compound?
A: 34.8%

Q: What about the inhibition [34] of the same compound?
A: 15.9%

Q: What about the inhibition [35] of the same compound?
A: 4.09%

Q: What about the inhibition [36] of the same compound?
A: 11.9%

Q: And the inhibition [37]?
A: 10.6%

Q: What about the inhibition [38] of the same compound?
A: 10.9%

Q: What about the inhibition [39] of the same compound?
A: 1.48%
